This assay concerns the target T1, INSRR (IRR) (Homo sapiens, UniProt P14616).
T1 construct: purchased Thermo Fisher Scientific (Life Technologies) SelectScreen
In words: SelectScreen Z'LYTE. The format is biochemical. The gist of the method:
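NU5455 was profiled across the SelectScreen Broad panel of kinase activity and binding assays. Z'LYTE reactions such as CSF1R ran at apparent Km ATP, while the Adapta CAMK1 assay used ATP listed as 10. Values are given as percent.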

Experimental findings from publication PMC6934184, “Selective DNA-PKcs inhibition extends the therapeutic index of localized radiotherapy and chemotherapy” (The Journal of Clinical Investigation, 2019) are described below.

T1 sequence (P14616 27-1297): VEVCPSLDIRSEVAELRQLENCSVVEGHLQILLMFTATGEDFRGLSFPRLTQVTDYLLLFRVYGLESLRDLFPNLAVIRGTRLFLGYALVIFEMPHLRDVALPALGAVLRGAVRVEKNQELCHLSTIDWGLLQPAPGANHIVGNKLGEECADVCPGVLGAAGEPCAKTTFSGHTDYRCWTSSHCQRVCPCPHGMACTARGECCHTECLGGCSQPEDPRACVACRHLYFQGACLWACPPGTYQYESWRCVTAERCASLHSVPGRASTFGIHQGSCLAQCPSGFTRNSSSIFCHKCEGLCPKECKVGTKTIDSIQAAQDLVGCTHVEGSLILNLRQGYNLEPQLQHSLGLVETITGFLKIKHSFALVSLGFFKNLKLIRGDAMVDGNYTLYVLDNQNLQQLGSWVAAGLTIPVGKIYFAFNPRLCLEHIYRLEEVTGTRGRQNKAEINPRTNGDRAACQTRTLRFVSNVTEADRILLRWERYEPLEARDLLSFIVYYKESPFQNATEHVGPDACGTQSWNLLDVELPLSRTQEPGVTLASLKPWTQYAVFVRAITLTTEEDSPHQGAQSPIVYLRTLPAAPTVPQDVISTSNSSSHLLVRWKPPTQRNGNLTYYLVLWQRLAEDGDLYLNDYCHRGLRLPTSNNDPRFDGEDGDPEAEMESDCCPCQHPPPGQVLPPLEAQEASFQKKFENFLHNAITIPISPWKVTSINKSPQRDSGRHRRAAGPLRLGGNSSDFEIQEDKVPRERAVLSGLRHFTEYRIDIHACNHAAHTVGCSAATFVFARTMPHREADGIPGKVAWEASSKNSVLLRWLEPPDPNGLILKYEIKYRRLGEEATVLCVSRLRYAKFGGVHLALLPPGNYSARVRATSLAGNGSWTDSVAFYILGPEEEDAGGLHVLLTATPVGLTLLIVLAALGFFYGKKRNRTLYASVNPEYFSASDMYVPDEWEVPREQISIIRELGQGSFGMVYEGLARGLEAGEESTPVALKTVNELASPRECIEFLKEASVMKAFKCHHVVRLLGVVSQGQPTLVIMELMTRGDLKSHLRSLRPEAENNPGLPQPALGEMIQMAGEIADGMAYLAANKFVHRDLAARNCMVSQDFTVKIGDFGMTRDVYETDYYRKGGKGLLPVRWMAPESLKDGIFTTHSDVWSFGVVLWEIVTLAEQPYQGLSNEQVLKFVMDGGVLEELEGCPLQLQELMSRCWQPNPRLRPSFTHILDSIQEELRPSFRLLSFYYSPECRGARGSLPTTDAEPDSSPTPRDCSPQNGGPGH

For the compound `CN(C(=O)CN1CCOCC1)c1ccc2sc3c(-c4cccc5c(=O)cc(N6CC7CCC(C6)O7)oc45)cccc3c2c1` [NU5455], 1 µM produced 14.1% inhibition.
